Results from patent publication US20090252687A1, “ASYMMETRIC FLUORO-SUBSTITUTED POLYMETHINE DYES” (priority 2006, published 2009).

Assay: Photostability of the fluorescence signal
Assay type: physicochemical
Settings: 1:1 methanol:water; Karl Storz Xenon 175 light source at 100% intensity for 30 min; fraction of dark control
Method: In a further example the photostability of the fluorescence signal was measured. The photostability of Compound 3 (the fluorinated Cy3F pyrylium of Example 19) was studied in comparison with a non-fluorinated analogue, Cy3 pyrylium (Compound C)
The dyes were dissolved in a 1:1 mixture of methanol:water to give an absorbance reading of 1Au at the dyes lambda max and then diluted 20 times for fluorescence measurements. The samples were exposed to light with a Karl Storz Xenon 175 light source at 100% intensity for 30 min. The cuvette was kept in a water bath while exposed to light, to avoid heating. Fluorescence measurements were made on Cary Eclipse (Varian) fluorescence spectrophotometer 1 cm cuvette, ex/em slit 5 nm

max fluorescence intensity relative to the dark control (photostability) | SMILES
0.94 | CN(C)c1ccc2c(c1)OC(C(C)(C)C)=C/C2=C\C=C\C1=[N+](CCCCCC(=O)O)c2c(F)c(F)c(F)c(F)c2C1(C)CCCCS(=O)(=O)[O-] (centres unmarked) [Compound 3, 4-[2-{(1E,3E)-3-[2-tert-butyl-7-(dimethylamino)-4H-chromen-4-ylidene]prop-1-enyl}-1-(5-carboxypentyl)-4,5,6,7-tetrafluoro-3-methyl-3H-indolium-3-yl]butane-1-sulfonate]
0.79 | CN(C)c1ccc2c(c1)OC(C(C)(C)C)=C/C2=C\C=C\C1=[N+](CCCCCC(=O)O)c2ccc(S(=O)(=O)[O-])cc2C1(C)C [Compound C]
